IC50 data for 35 compounds are collected here from US10562887B2, “Triazolones and tetrazolones as inhibitors of ROCK” (BRISTOL-MYERS SQUIBB COMPANY, priority 2016, dated 2020).

Broadly, the IC50 is the concentration that gives 50% inhibition. A high value points to a need for much substance.

Some results are limits rather than exact numbers.

Sequence of ROCK2 (O75116 whole entry, species assumed): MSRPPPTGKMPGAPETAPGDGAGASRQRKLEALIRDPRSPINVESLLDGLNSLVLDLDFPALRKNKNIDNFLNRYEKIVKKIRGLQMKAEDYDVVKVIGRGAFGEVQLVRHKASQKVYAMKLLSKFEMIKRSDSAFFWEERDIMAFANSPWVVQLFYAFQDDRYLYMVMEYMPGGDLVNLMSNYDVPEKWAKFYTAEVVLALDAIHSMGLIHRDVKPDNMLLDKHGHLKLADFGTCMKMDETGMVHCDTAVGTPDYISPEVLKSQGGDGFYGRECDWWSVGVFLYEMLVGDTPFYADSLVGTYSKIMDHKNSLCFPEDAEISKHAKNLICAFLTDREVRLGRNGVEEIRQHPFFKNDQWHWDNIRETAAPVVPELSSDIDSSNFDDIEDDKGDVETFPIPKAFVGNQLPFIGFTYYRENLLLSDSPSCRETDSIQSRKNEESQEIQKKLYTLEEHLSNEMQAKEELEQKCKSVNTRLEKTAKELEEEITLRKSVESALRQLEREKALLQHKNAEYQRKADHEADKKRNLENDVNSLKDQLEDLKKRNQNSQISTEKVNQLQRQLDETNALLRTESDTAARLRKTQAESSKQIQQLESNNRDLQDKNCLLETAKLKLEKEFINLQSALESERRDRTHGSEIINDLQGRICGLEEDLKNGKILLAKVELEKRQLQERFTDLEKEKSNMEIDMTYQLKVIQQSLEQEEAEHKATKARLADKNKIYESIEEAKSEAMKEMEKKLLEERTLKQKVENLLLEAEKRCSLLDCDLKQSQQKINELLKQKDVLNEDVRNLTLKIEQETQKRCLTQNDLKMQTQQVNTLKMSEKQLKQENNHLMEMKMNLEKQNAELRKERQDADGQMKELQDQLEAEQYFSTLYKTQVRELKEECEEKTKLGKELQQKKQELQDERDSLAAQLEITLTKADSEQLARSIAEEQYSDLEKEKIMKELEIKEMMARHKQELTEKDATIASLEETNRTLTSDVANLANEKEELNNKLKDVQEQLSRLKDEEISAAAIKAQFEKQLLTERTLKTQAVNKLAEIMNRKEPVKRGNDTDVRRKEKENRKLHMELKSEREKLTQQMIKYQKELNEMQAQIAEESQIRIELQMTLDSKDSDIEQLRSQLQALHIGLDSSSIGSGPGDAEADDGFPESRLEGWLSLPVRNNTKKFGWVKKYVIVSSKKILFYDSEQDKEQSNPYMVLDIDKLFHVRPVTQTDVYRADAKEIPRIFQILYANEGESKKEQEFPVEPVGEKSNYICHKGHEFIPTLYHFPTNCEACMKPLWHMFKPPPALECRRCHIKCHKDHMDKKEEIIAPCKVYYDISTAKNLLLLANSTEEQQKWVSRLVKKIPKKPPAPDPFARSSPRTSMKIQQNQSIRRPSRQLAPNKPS

This test deals with ROCK2 (Homo sapiens (Human), UniProt O75116). The test is described as follows: ROCK2 assay (peptide phosphorylation, LABCHIP 3000 Reader). It is filed as biochemical. Conditions: 5 μM ATP, 1.5 μM peptide substrate. How it is done:
The effectiveness of compounds of the present invention as ROCK inhibitors can be determined in a 30 μL, assay containing 20 mM HEPES, pH 7.5, 20 mM MgCl2, 0.015% Brij-35, 4 mM DTT, 5 μM ATP and 1.5 μM peptide substrate (FITC-AHA-AKRRRLSSLRA-OH). Compounds were dissolved in DMSO so that the final concentration of DMSO was <2%, and the reaction was initiated with Rho kinase variants. After incubation, the reaction was terminated by the addition of EDTA and the phosphorylated and non-phosphorylated peptides separated using a LABCHIP® 3000 Reader (Caliper Life Sciences). […] Compounds were tested in dose-response format, and the inhibition of kinase activity was calculated at each concentration of compound. The inhibition data were fit using a curve-fitting program to determine the IC50; i.e., the concentration of compound required to inhibit 50% of kinase activity.
Representative Examples were tested in the ROCK2 assay described above and found having ROCK2 inhibitory activity.
`CCc1cc(-n2ncn(Cc3cc(F)cc(F)c3)c2=O)ccc1-c1cn[nH]c1` [Example 44, 4-(3,5-difluorobenzyl)-1-(3-ethyl-4-(1H-pyrazol-4-yl)phenyl)-1H-1,2,4-triazol-5(4H)-one] yielded an IC50 of 0.005 to 0.05 µM.
The same measure for `O=c1n(Cc2cccc(F)c2)nnn1-c1ccc(-c2cn[nH]c2)cc1` [Example 173, 1-(4-(1H-pyrazol-4-yl)phenyl)-4-(3-fluorobenzyl)-1H-tetrazol-5(4H)-one]: 0.05 to 0.25 µM; for `CCc1cc(-n2ncn(Cc3ccc(F)cc3)c2=O)ccc1-c1cn[nH]c1` [Example 43, 1-(3-ethyl-4-(1H-pyrazol-4-yl)phenyl)-4-(4-fluorobenzyl)-1H-1,2,4-triazol-5(4H)-one]: 0.25 to 2 µM; for `COc1cc(F)cc(Cn2nc(C)n(-c3ccc(-c4cn[nH]c4)cc3OC)c2=O)c1` [Example 76, 1-(3-fluoro-5-methoxybenzyl)-4-(2-methoxy-4-(1H-pyrazol-4-yl)phenyl)-3-methyl-1H-1,2,4-triazol-5(4H)-one]: 0.25 to 2 µM.
Under `O=c1n(-c2ccc(-c3cn[nH]c3)cc2)nc(CO)n1Cc1cccc(OC(F)F)c1` [Example 131, 1-(4-(1H-pyrazol-4-yl)phenyl)-4-(3-(difluoromethoxy)benzyl)-3-(hydroxymethyl)-1H-1,2,4-triazol-5(4H)-one] stands 0.005 to 0.05 µM; under `COc1cc(-n2nc(C)n(CCc3ccccc3)c2=O)ccc1-c1cn[nH]c1` [Example 94, 1-(3-methoxy-4-(1H-pyrazol-4-yl)phenyl)-3-methyl-4-phenethyl-1H-1,2,4-triazol-5(4H)-one], 0.005 to 0.05 µM; under `Cc1nn(-c2ccc(-c3cn[nH]c3)cc2)c(=O)n1Cc1ccccc1F` [Example 87, 2-(4-(1H-pyrazol-4-yl)phenyl)-4-(2-fluorobenzyl)-5-methyl-2,4-dihydro-3H-1,2,4-triazol-3-one], 0.005 to 0.05 µM.
For `Cc1nn(-c2ccc(-c3cn[nH]c3)cc2)c(=O)n1Cc1ccccc1Cl` [Example 86, 1-(4-(1H-pyrazol-4-yl)phenyl)-4-(2-chlorobenzyl)-3-methyl-1H-1,2,4-triazol-5(4H)-one], the half-maximal inhibitory concentration (IC50) was 0.005 to 0.05 µM.
Under `COc1cc(-n2ncn(Cc3ccccc3F)c2=O)ccc1-c1cn[nH]c1` [Example 31, 4-(2-fluorobenzyl)-1-(3-methoxy-4-(1H-pyrazol-4-yl)phenyl)-1H-1,2,4-triazol-5(4H)-one] stands 0.005 to 0.05 µM; under `COc1cc(Cn2c(CO)nn(-c3ccc(-c4cn[nH]c4)cc3)c2=O)ccc1F` [Example 158, 1-(4-(1H-pyrazol-4-yl)phenyl)-4-(4-fluoro-3-methoxybenzyl)-3-(hydroxymethyl)-1H-1,2,4-triazol-5(4H)-one], 0.005 to 0.05 µM; under `COc1cccc(Cn2cnn(-c3ccc(-c4cn[nH]c4)cc3)c2=O)c1F` [Example 51, 1-(4-(1H-pyrazol-4-yl)phenyl)-4-(2-fluoro-3-methoxybenzyl)-1H-1,2,4-triazol-5(4H)-one], 0.005 to 0.05 µM.
The same measure for `CC(C)(O)c1nn(-c2ccc(-c3cn[nH]c3)cc2)c(=O)n1Cc1cccc(F)c1` [Example 135, 1-(4-(1H-pyrazol-4-yl)phenyl)-4-(3-fluorobenzyl)-3-(2-hydroxypropan-2-yl)-1H-1,2,4-triazol-5(4H)-one]: 0.005 to 0.05 µM; for `Cc1nn(C(C)c2ccccc2)c(=O)n1-c1ccc(-c2cn[nH]c2)cc1` (centres unmarked) [Example 73, 4-(4-(1H-pyrazol-4-yl)phenyl)-3-methyl-1-(1-phenylethyl)-1H-1,2,4-triazol-5(4H)-one]: 0.25 to 2 µM.
Under `COc1cc(F)cc(Cn2c(CN3CCCC3)nn(-c3ccc(-c4cn[nH]c4)cc3)c2=O)c1` [Example 150, 1-(4-(1H-pyrazol-4-yl)phenyl)-4-(3-fluoro-5-methoxybenzyl)-3-(pyrrolidin-1-ylmethyl)-1H-1,2,4-triazol-5(4H)-one] stands 0.005 to 0.05 µM; under `COc1cc(Cn2c(C(C)O)nn(-c3ccc(-c4cn[nH]c4)cc3)c2=O)cc(OC)c1` (single isomer, unassigned) [Example 147, 1-(4-(1H-pyrazol-4-yl)phenyl)-4-(3,5-dimethoxybenzyl)-3-(1-hydroxyethyl)-1H-1,2,4-triazol-5(4H)-one], 0.05 to 0.25 µM.
`COc1cc(F)cc(Cn2c(C(C)(C)O)nn(-c3ccc(-c4cn[nH]c4)cc3)c2=O)c1` [Example 145, 1-(4-(1H-pyrazol-4-yl)phenyl)-4-(3-fluoro-5-methoxybenzyl)-3-(2-hydroxypropan-2-yl)-1H-1,2,4-triazol-5(4H)-one] returned an IC50 of 0.005 to 0.05 µM.
`COc1cccc(Cn2cnn(-c3ccc(-c4ccnc(N)c4)cc3)c2=O)c1` [Example 162, 1-(4-(2-aminopyridin-4-yl)phenyl)-4-(3-methoxybenzyl)-1H-1,2,4-triazol-5(4H)-one] returned a concentration for half-maximal inhibition (IC50) of 0.005 to 0.05 µM.
On to `CCc1cc(-n2ncn(Cc3cccc(OC)c3)c2=O)ccc1-c1cn[nH]c1` [Example 45, 1-(3-ethyl-4-(1H-pyrazol-4-yl)phenyl)-4-(3-methoxybenzyl)-1H-1,2,4-triazol-5(4H)-one], for which the half-maximal inhibitory concentration (IC50) was in the range of 0.005 to 0.05 µM.
The same measure for `COc1cccc(Cn2c(CN3CCCC3)nn(-c3ccc(-c4cn[nH]c4)cc3)c2=O)c1` [Example 146, 1-(4-(1H-pyrazol-4-yl)phenyl)-4-(3-methoxybenzyl)-3-(pyrrolidin-1-ylmethyl)-1H-1,2,4-triazol-5(4H)-one]: 0.005 to 0.05 µM; for `Cc1nn(Cc2cccc(F)c2)c(=O)n1-c1ccc(-c2cn[nH]c2)cc1` [Example 70, 4-(4-(1H-pyrazol-4-yl)phenyl)-1-(3-fluorobenzyl)-3-methyl-1H-1,2,4-triazol-5(4H)-one]: 0.25 to 2 µM; for `CCc1cc(-n2ncn(Cc3cc(F)cc(OC)c3)c2=O)ccc1-c1cn[nH]c1` [Example 40, 1-(3-ethyl-4-(1H-pyrazol-4-yl)phenyl)-4-(3-fluoro-5-methoxybenzyl)-1H-1,2,4-triazol-5(4H)-one]: 0.005 to 0.05 µM.
The same measure for `COc1cc(Cn2c(C)nn(-c3ccc(-c4cn[nH]c4)cc3)c2=O)cc(OC)c1` [Example 120, 1-(4-(1H-pyrazol-4-yl)phenyl)-4-(3,5-dimethoxybenzyl)-3-methyl-1H-1,2,4-triazol-5(4H)-one]: 0.25 to 2 µM.
Under `COc1cc(-n2nnn(Cc3c(F)cccc3F)c2=O)ccc1-c1cn[nH]c1` [Example 184, 1-(2,6-difluorobenzyl)-4-(3-methoxy-4-(1H-pyrazol-4-yl)phenyl)-1H-tetrazol-5(4H)-one] stands 0.05 to 0.25 µM; under `CCc1cc(-n2ncn(Cc3c(F)cccc3F)c2=O)ccc1-c1cn[nH]c1` [Example 57, 4-(2,6-difluorobenzyl)-1-(3-ethyl-4-(1H-pyrazol-4-yl)phenyl)-1H-1,2,4-triazol-5(4H)-one], 0.25 to 2 µM; under `CCc1cc(-n2ncn(C(C)c3ccccc3)c2=O)ccc1-c1cn[nH]c1` (centres unmarked) [Example 58, 1-(3-ethyl-4-(1H-pyrazol-4-yl)phenyl)-4-(1-phenylethyl)-1H-1,2,4-triazol-5(4H)-one], 0.005 to 0.05 µM.
For the compound `COc1cccc(Cn2cnn(-c3ccc(-c4cn[nH]c4)c(OC)c3)c2=O)c1` [Example 24, 1-(3-methoxy-4-(1H-pyrazol-4-yl)phenyl)-4-(3-methoxybenzyl)-1H-1,2,4-triazol-5(4H)-one], the half-maximal inhibitory concentration (IC50) was less than 0.005 µM.
In turn, `CCc1cc(-n2ncn(Cc3ccccc3)c2=O)ccc1-c1cn[nH]c1` [Example 54, 4-benzyl-1-(3-ethyl-4-(1H-pyrazol-4-yl)phenyl)-1H-1,2,4-triazol-5(4H)-one] registered an IC50 of 0.05 to 0.25 µM.
The same measure for `COc1cccc(Cn2cnn(-c3ccc(-c4ccnc(N)n4)cc3)c2=O)c1` [Example 170, 1-(4-(2-aminopyrimidin-4-yl)phenyl)-4-(3-methoxybenzyl)-1H-1,2,4-triazol-5(4H)-one]: 0.005 to 0.05 µM; for `COc1cccc(Cn2c(C)nn(-c3ccc(-c4ccnc(N)c4)cc3)c2=O)c1` [Example 161, 1-(4-(2-aminopyridin-4-yl)phenyl)-4-(3-methoxybenzyl)-3-methyl-1H-1,2,4-triazol-5(4H)-one]: 0.05 to 0.25 µM.
`COc1cc(-c2cn[nH]c2)ccc1-n1c(C)nn(CCc2ccccc2)c1=O` [Example 77, 4-(2-methoxy-4-(1H-pyrazol-4-yl)phenyl)-3-methyl-1-phenethyl-1H-1,2,4-triazol-5(4H)-one] showed an IC50 of 0.25 to 2 µM.
For `COc1cccc(Cn2ncn(-c3ccc(-c4cn[nH]c4)cc3OC)c2=O)c1` [Example 11, 4-(2-methoxy-4-(1H-pyrazol-4-yl)phenyl)-1-(3-methoxybenzyl)-1H-1,2,4-triazol-5(4H)-one], the IC50 lay within 0.05 to 0.25 µM.
Under `CCc1cc(-n2ncn(Cc3cccc(F)c3)c2=O)ccc1-c1cn[nH]c1` [Example 55, 1-(3-ethyl-4-(1H-pyrazol-4-yl)phenyl)-4-(3-fluorobenzyl)-1H-1,2,4-triazol-5(4H)-one] stands 0.005 to 0.05 µM.
`COc1cccc(Cn2cnn(-c3ccc(-c4cn[nH]c4)cc3)c2=O)c1` [Example 18, 1-(4-(1H-pyrazol-4-yl)phenyl)-4-(3-methoxybenzyl)-1H-1,2,4-triazol-5(4H)-one]: the concentration for half-maximal inhibition (IC50) is less than 0.005 µM.
`CCc1cc(-n2nc(C)n(Cc3ccccc3)c2=O)ccc1-c1cn[nH]c1` [Example 117, 4-benzyl-1-(3-ethyl-4-(1H-pyrazol-4-yl)phenyl)-3-methyl-1H-1,2,4-triazol-5(4H)-one] came in with a half-maximal inhibitory concentration (IC50) of 0.005 to 0.05 µM.
The same measure for `Cc1nn(Cc2cc(F)ccc2F)c(=O)n1-c1ccc(-c2cn[nH]c2)cc1` [Example 71, 4-(4-(1H-pyrazol-4-yl)phenyl)-1-(2,5-difluorobenzyl)-3-methyl-1H-1,2,4-triazol-5(4H)-one]: 0.25 to 2 µM.
